# In PMC3663118, “Structure of the protein core of translation initiation factor 2 in apo, GTP-bound and GDP-bound forms” (Acta Crystallographica Section D: Biological Crystallography, 2013):
# Assays:
# [1] = biological target: T1, IF2 (protein core, residues 1-363) (Thermus thermophilus, UniProt P48515); assay: X-ray crystal structure, […] A, crystal soaking; type: binding; settings: 5 mM GDP added to the crystallization drop; Mg2+ bound; pH 7.5 protein buffer; G-domain P-loop site
# T1 construct: gene infB; proteolysed during crystallization to residues 1-363 (40 kDa; N domain, G domain, domain II, start of domain III); one molecule per asymmetric unit
# T1 sequence (P48515 1-363): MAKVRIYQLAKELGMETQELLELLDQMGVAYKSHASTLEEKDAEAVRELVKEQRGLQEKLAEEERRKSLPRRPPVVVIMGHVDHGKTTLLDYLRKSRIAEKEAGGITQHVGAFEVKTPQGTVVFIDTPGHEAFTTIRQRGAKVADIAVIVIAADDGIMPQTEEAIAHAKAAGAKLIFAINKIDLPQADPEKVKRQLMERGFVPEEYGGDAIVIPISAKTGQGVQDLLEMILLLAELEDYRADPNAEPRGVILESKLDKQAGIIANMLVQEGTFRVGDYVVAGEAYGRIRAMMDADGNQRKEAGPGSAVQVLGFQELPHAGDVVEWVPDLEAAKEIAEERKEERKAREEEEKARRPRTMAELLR
# [2] = biological target: T1, IF2 (protein core, residues 1-363); assay: X-ray crystal structure, […] A, crystal soaking; type: binding; settings: 30 s soak with GTP-containing cryoprotectant; Mg2+ bound; pH 7.5 protein buffer; G-domain P-loop site; GTP occupancy 0.68
SMILES,"X-ray crystal structure, 2.3 A, crystal soaking [1]","X-ray crystal structure, 2.8 A, crystal soaking [2]"
Nc1nc2c(ncn2[C@@H]2O[C@H](COP(=O)(O)OP(=O)(O)O)[C@@H](O)[C@H]2O)c(=O)[nH]1 [GDP],"4b3x, 4b48, 4b47 for the apo, GTP and GDP complexes, respectively",
Nc1nc2c(ncn2[C@@H]2O[C@H](COP(=O)(O)OP(=O)(O)OP(=O)(O)O)[C@@H](O)[C@H]2O)c(=O)[nH]1 [GTP],,"4b3x, 4b48, 4b47 for the apo, GTP and GDP complexes, respectively"
